Values after ≈ are worked out from the molar mass of the structure shown.
Assays:
[1] = test system: Staphylococcus aureus; experiment: Antibacterial activity against vancomycin-intermediate resistant Staphylococcus aureus clinical isolate after 24 hrs by broth microdilution method; format: functional
[2] = Toxicity assessed as hemolysis in erythrocytes at 180 mg/L; format: cell-based, Erythrocyte; conditions: human; for hemolysis at 180 mg/L: erythrocytes, read-out: Activity; for Activity: erythrocyte
[3] = test system: Candida albicans; experiment: Antifungal activity against Candida albicans SKF-2270 after 24 hrs by broth microdilution method; format: functional
[4] = test system: Staphylococcus aureus; experiment: Antibacterial activity against methicillin-resistant Staphylococcus aureus clinical isolate after 24 hrs by broth microdilution method; format: functional
[5] = test system: Escherichia coli; experiment: Antibacterial activity against Escherichia coli SKF-12140 after 24 hrs by broth microdilution method; format: functional
[6] = test system: Enterococcus faecalis; experiment: Antibacterial activity against Enterococcus faecalis after 24 hrs by broth microdilution method; format: functional
[7] = test system: Enterococcus faecium; experiment: Antibacterial activity against Enterococcus faecium after 24 hrs by broth microdilution method; format: functional
[8] = test system: Staphylococcus aureus; experiment: Antibacterial activity against methicillin-resistant and vancomycin-intermediate resistant Staphylococcus aureus clinical isolate after 24 hrs by broth microdilution method; format: functional
[9] = test system: Enterococcus faecalis; experiment: Antibacterial activity against vancomycin A-resistant Enterococcus faecalis after 24 hrs by broth microdilution method; format: functional
[10] = test system: Streptococcus pyogenes; experiment: Antibacterial activity against Streptococcus pyogenes C203 after 24 hrs by broth microdilution method; format: functional; conditions: C203, 24 h
[11] = test system: Staphylococcus aureus; experiment: Antibacterial activity against Staphylococcus aureus Smith after 24 hrs by broth microdilution method; format: functional
[12] = test system: Enterococcus faecium; experiment: Antibacterial activity against vancomycin A-resistant Enterococcus faecium clinical isolate after 24 hrs by broth microdilution method; format: functional
[13] = Toxicity assessed as hemolysis in erythrocytes at 90 mg/L; format: cell-based, Erythrocyte; conditions: human; for hemolysis at 90 mg/L: erythrocytes, read-out: Activity; for Activity: erythrocyte

SMILES: CC(C)C[C@@H]1NC(=O)CNC(=O)[C@H](c2ccc(O)cc2)NC(=O)[C@@H]([C@@H](C)O)NC(=O)[C@H](c2ccc(O[C@H]3O[C@H](CO)[C@@H](O)[C@H](O)[C@@H]3O[C@H]3O[C@H](CO)[C@@H](O)[C@H](O)[C@@H]3O)cc2)NC(=O)[C@@H](CCCN)NC(=O)[C@H](Cc2ccccc2)NC(=O)[C@H]([C@@H](C)O)NC(=O)[C@@H](c2ccc(O)cc2)NC(=O)[C@H](c2ccc(O)cc2)NC(=O)[C@@H](C(C)C)NC(=O)[C@@H](CCCN)NC(=O)[C@@H](c2ccc(O)cc2)NC(=O)[C@@H](CNC(=O)[C@H](CC(N)=O)NC(=O)CCc2ccccc2)[C@@H](C(N)=O)OC(=O)[C@H](c2ccc(O)c(Cl)c2)NC(=O)[C@@H](C)NC1=O
- MIC [1]: 8 µg/mL (≈ 3.12 µM)
- hemolysis at 180 mg/L [2]: 0%
- MIC ([3]; read-out: MIC): > 32 µg/mL
- MIC ([4]; read-out: MIC): 2 µg/mL (≈ 0.781 µM)
- MIC ([5]; read-out: MIC): > 32 µg/mL
- MIC ([6]; read-out: MIC): 2 µg/mL (≈ 0.781 µM)
- MIC ([7]; read-out: MIC): 1 µg/mL (≈ 0.39 µM)
- MIC ([8]; read-out: MIC): 8 µg/mL (≈ 3.12 µM)
- MIC ([9]; read-out: MIC): 2 µg/mL (≈ 0.781 µM)
- MIC ([10]; read-out: MIC): ≤ 0.03 µg/mL
- MIC ([11]; read-out: MIC): 16 µg/mL (≈ 6.24 µM)
- MIC ([12]; read-out: MIC): 2 µg/mL (≈ 0.781 µM)
- hemolysis at 90 mg/L [13]: 0%

SMILES: CCOc1ccc(C(=O)N[C@@H](CC(N)=O)C(=O)NC[C@@H]2C(=O)N[C@H](c3ccc(O)cc3)C(=O)N[C@H](CCCN)C(=O)N[C@H](C(C)C)C(=O)N[C@@H](c3ccc(O)cc3)C(=O)N[C@H](c3ccc(O)cc3)C(=O)N[C@@H]([C@@H](C)O)C(=O)N[C@@H](Cc3ccccc3)C(=O)N[C@H](CCCN)C(=O)N[C@@H](c3ccc(O[C@H]4O[C@H](CO)[C@@H](O)[C@H](O)[C@@H]4O[C@H]4O[C@H](CO)[C@@H](O)[C@H](O)[C@@H]4O)cc3)C(=O)N[C@H]([C@@H](C)O)C(=O)N[C@@H](c3ccc(O)cc3)C(=O)NCC(=O)N[C@@H](CC(C)C)C(=O)N[C@H](C)C(=O)N[C@@H](c3ccc(O)c(Cl)c3)C(=O)O[C@@H]2C(N)=O)cc1
- MIC [1]: 8 µg/mL (≈ 3.1 µM)
- hemolysis at 180 mg/L [2]: 1%
- MIC ([3]; read-out: MIC): > 32 µg/mL
- MIC ([4]; read-out: MIC): 2 µg/mL (≈ 0.776 µM)
- MIC ([5]; read-out: MIC): > 32 µg/mL
- MIC ([6]; read-out: MIC): 2 µg/mL (≈ 0.776 µM)
- MIC ([7]; read-out: MIC): 2 µg/mL (≈ 0.776 µM)
- MIC ([8]; read-out: MIC): 32 µg/mL (≈ 12.4 µM)
- MIC ([9]; read-out: MIC): 2 µg/mL (≈ 0.776 µM)
- MIC ([10]; read-out: MIC): < 0.03 µg/mL
- MIC ([11]; read-out: MIC): 1 µg/mL (≈ 0.388 µM)
- MIC ([12]; read-out: MIC): 2 µg/mL (≈ 0.776 µM)
- hemolysis at 90 mg/L [13]: 1%

SMILES: CC(C)C[C@@H]1NC(=O)CNC(=O)[C@H](c2ccc(O)cc2)NC(=O)[C@@H]([C@@H](C)O)NC(=O)[C@H](c2ccc(O[C@H]3O[C@H](CO)[C@@H](O)[C@H](O)[C@@H]3O[C@H]3O[C@H](CO)[C@@H](O)[C@H](O)[C@@H]3O)cc2)NC(=O)[C@@H](CCCN)NC(=O)[C@H](Cc2ccccc2)NC(=O)[C@H]([C@@H](C)O)NC(=O)[C@@H](c2ccc(O)cc2)NC(=O)[C@H](c2ccc(O)cc2)NC(=O)[C@@H](C(C)C)NC(=O)[C@@H](CCCN)NC(=O)[C@@H](c2ccc(O)cc2)NC(=O)[C@@H](CNC(=O)[C@H](CC(N)=O)NC(=O)Cc2cccc3ccccc23)[C@@H](C(N)=O)OC(=O)[C@H](c2ccc(O)c(Cl)c2)NC(=O)[C@@H](C)NC1=O
- MIC [1]: 0.0005 µg/mL (≈ 0.000192 µM)
- Activity [2]: 28%
- MIC [3]: > 32 µg/mL
- MIC [4]: 0.125 µg/mL (≈ 0.0481 µM)
- MIC [5]: > 32 µg/mL
- MIC [6]: 0.125 µg/mL (≈ 0.0481 µM)
- MIC [7]: 0.25 µg/mL (≈ 0.0962 µM)
- MIC [8]: 1 µg/mL (≈ 0.385 µM)
- MIC [9]: 0.125 µg/mL (≈ 0.0481 µM)
- MIC [10]: ≤ 0.03 µg/mL
- MIC [11]: 0.25 µg/mL (≈ 0.0962 µM)
- MIC [12]: 0.25 µg/mL (≈ 0.0962 µM)
- Activity [13]: 15%

SMILES: CC(C)C[C@@H]1NC(=O)CNC(=O)[C@H](c2ccc(O)cc2)NC(=O)[C@@H]([C@@H](C)O)NC(=O)[C@H](c2ccc(O[C@H]3O[C@H](CO)[C@@H](O)[C@H](O)[C@@H]3O[C@H]3O[C@H](CO)[C@@H](O)[C@H](O)[C@@H]3O)cc2)NC(=O)[C@@H](CCCN)NC(=O)[C@H](Cc2ccccc2)NC(=O)[C@H]([C@@H](C)O)NC(=O)[C@@H](c2ccc(O)cc2)NC(=O)[C@H](c2ccc(O)cc2)NC(=O)[C@@H](C(C)C)NC(=O)[C@@H](CCCN)NC(=O)[C@@H](c2ccc(O)cc2)NC(=O)[C@@H](CNC(=O)[C@H](CC(N)=O)NC(=O)Cc2ccccc2)[C@@H](C(N)=O)OC(=O)[C@H](c2ccc(O)c(Cl)c2)NC(=O)[C@@H](C)NC1=O
- MIC [1]: 0.008 µg/mL (≈ 0.00314 µM)
- Activity [2]: 0%
- MIC [3]: > 32 µg/mL
- MIC ([4]; read-out: MIC): 0.002 µg/mL (≈ 0.000785 µM)
- MIC [5]: > 32 µg/mL
- MIC ([6]; read-out: MIC): 0.004 µg/mL (≈ 0.00157 µM)
- MIC ([7]; read-out: MIC): 0.008 µg/mL (≈ 0.00314 µM)
- MIC [8]: 16 µg/mL (≈ 6.28 µM)
- MIC ([9]; read-out: MIC): 0.004 µg/mL (≈ 0.00157 µM)
- MIC [10]: 0.06 µg/mL (≈ 0.0235 µM)
- MIC ([11]; read-out: MIC): 0.002 µg/mL (≈ 0.000785 µM)
- MIC ([12]; read-out: MIC): 0.004 µg/mL (≈ 0.00157 µM)
- Activity [13]: 0%

SMILES: Cc1ccc(CC(=O)N[C@@H](CC(N)=O)C(=O)NC[C@@H]2C(=O)N[C@H](c3ccc(O)cc3)C(=O)N[C@H](CCCN)C(=O)N[C@H](C(C)C)C(=O)N[C@@H](c3ccc(O)cc3)C(=O)N[C@H](c3ccc(O)cc3)C(=O)N[C@@H]([C@@H](C)O)C(=O)N[C@@H](Cc3ccccc3)C(=O)N[C@H](CCCN)C(=O)N[C@@H](c3ccc(O[C@H]4O[C@H](CO)[C@@H](O)[C@H](O)[C@@H]4O[C@H]4O[C@H](CO)[C@@H](O)[C@H](O)[C@@H]4O)cc3)C(=O)N[C@H]([C@@H](C)O)C(=O)N[C@@H](c3ccc(O)cc3)C(=O)NCC(=O)N[C@@H](CC(C)C)C(=O)N[C@H](C)C(=O)N[C@@H](c3ccc(O)c(Cl)c3)C(=O)O[C@@H]2C(N)=O)cc1
- MIC [1]: 0.008 µg/mL (≈ 0.00312 µM)
- Activity [2]: 0%
- MIC [3]: > 32 µg/mL
- MIC ([4]; read-out: MIC): 0.002 µg/mL (≈ 0.000781 µM)
- MIC [5]: > 32 µg/mL
- MIC ([6]; read-out: MIC): 0.002 µg/mL (≈ 0.000781 µM)
- MIC ([7]; read-out: MIC): 0.004 µg/mL (≈ 0.00156 µM)
- MIC [8]: 8 µg/mL (≈ 3.12 µM)
- MIC ([9]; read-out: MIC): 0.002 µg/mL (≈ 0.000781 µM)
- MIC [10]: 0.06 µg/mL (≈ 0.0234 µM)
- MIC ([11]; read-out: MIC): 0.001 µg/mL (≈ 0.00039 µM)
- MIC ([12]; read-out: MIC): 0.002 µg/mL (≈ 0.000781 µM)
- Activity [13]: 0%

SMILES: CCCCC(=O)N[C@@H](CC(N)=O)C(=O)NC[C@@H]1C(=O)N[C@H](c2ccc(O)cc2)C(=O)N[C@H](CCCN)C(=O)N[C@H](C(C)C)C(=O)N[C@@H](c2ccc(O)cc2)C(=O)N[C@H](c2ccc(O)cc2)C(=O)N[C@@H]([C@@H](C)O)C(=O)N[C@@H](Cc2ccccc2)C(=O)N[C@H](CCCN)C(=O)N[C@@H](c2ccc(O[C@H]3O[C@H](CO)[C@@H](O)[C@H](O)[C@@H]3O[C@H]3O[C@H](CO)[C@@H](O)[C@H](O)[C@@H]3O)cc2)C(=O)N[C@H]([C@@H](C)O)C(=O)N[C@@H](c2ccc(O)cc2)C(=O)NCC(=O)N[C@@H](CC(C)C)C(=O)N[C@H](C)C(=O)N[C@@H](c2ccc(O)c(Cl)c2)C(=O)O[C@@H]1C(N)=O
- MIC [1]: 32 µg/mL (≈ 12.7 µM)
- hemolysis at 180 mg/L [2]: 0%
- MIC ([3]; read-out: MIC): > 32 µg/mL
- MIC ([4]; read-out: MIC): 8 µg/mL (≈ 3.18 µM)
- MIC ([5]; read-out: MIC): > 32 µg/mL
- MIC ([6]; read-out: MIC): 8 µg/mL (≈ 3.18 µM)
- MIC ([7]; read-out: MIC): 8 µg/mL (≈ 3.18 µM)
- MIC ([8]; read-out: MIC): > 32 µg/mL
- MIC ([9]; read-out: MIC): 8 µg/mL (≈ 3.18 µM)
- MIC ([10]; read-out: MIC): 0.125 µg/mL (≈ 0.0497 µM)
- MIC ([11]; read-out: MIC): 8 µg/mL (≈ 3.18 µM)
- MIC ([12]; read-out: MIC): 8 µg/mL (≈ 3.18 µM)
- hemolysis at 90 mg/L [13]: 0%
